Laboratory results: US12201621B2, “Base and pharmaceutical composition containing it” (BIOTTS S.A., priority 2019, dated 2025)
Where a name gives a salt, the structure may show the parent alone. Read-outs that look alike come from different tables or passages of the source.

Columns and labels:
[1] = cited from earlier work
[2] = in vivo; cited from earlier work
[3] = cited from earlier work; remark: listed apart in the source
[4] = in vivo; cited from earlier work; remark: listed apart in the source
[5] = pharmacokinetics and bioavailability after intravenous and topical administration; type: in vivo, Goetingen mini-pigs; details: intravenous administration at 1 mg/kg

For `CCCCNc1ccc(C(=O)OCCN(C)C)cc1` [Tetracaine Hydrochloride], which Water solubility [1] is on record?
The Water solubility was 150 mg/mL.

With `CCN(CC)CC(=O)Nc1c(C)cccc1C` [lidocaine, Lidocaine] as the compound, how does the “absorbed from the gastrointestinal tract” value [2] read?
The value was 30-40%.

And the “excreted by the kidneys unchanged” value [2]?
The value was 10%.

And the “extension of the effect” value ([3]; addition of epinephrine (5 μg/ml))?
The value was 50%.

And the duration of effect ([3]; aerosol)?
The duration of effect was 5 to 6 min.

And the onset of effect ([3]; aerosol)?
The onset of effect was 1 min.

What about the “duration of anti-arrhythmic effect” value ([3]; endotracheal administration) of the same compound?
The value was 30 to 50 min.

What about the “onset of anti-arrhythmic effect” value ([3]; endotracheal administration) of the same compound?
The value was 10 to 15 s.

What about the “time to peak anti-arrhythmic effect” value ([3]; endotracheal administration) of the same compound?
The value was 1 to 2 min.

What about the duration of effect ([3]; epidural administration) of the same compound?
Its duration of effect is “up to 4 hours”.

What about the onset of effect ([3]; epidural administration) of the same compound?
Its onset of effect is 5 to 15 min.

And the duration of effect ([3]; gel)?
The duration of effect was 30 to 60 min.

What about the onset of effect ([3]; gel) of the same compound?
Its onset of effect is 2 to 3 min.

And the “duration of anti-arrhythmic effect” value ([3]; i.v. administration)?
The value was 10 to 20 min.

What about the “onset of anti-arrhythmic effect” value ([3]; i.v. administration) of the same compound?
The value was 45 to 90 s.

What about the duration of effect ([3]; infiltration anesthesia) of the same compound?
The duration of effect was 30 to 60 min.

And the onset of effect ([3]; infiltration anesthesia)?
The onset of effect was 0.5 to 1 min.

For `CCCCNc1ccc(C(=O)OCCN(C)C)cc1` [tetracaine, Tetracaine], which hydrolysis in plasma [4] is on record?
Its hydrolysis in plasma is “rapid”.

What about the “clearance (printed: purified)” value [5] of the same compound?
The value was “highly purified”.

And the “distribution (printed: dispersed)” value [5]?
The value was “highly dispersed”.
